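A five-concentration, 48-hour dose response in 96-well plates underlies each endpoint, interpolated linearly between surrounding concentrations. Definition used: TGI = concentration required for complete inhibition of growth.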
Legend:
Test in all cases: inhibition of tumour cell growth, NCI panel, 48 h
[1] = system: 786-0 renal
[2] = system: A498 renal
[3] = system: A549 NSCLC
[4] = system: ACHN renal
[5] = system: BT-549 breast
[6] = system: CAKI-1 renal
[7] = system: CCRF-CEM leukemia
[8] = system: COLO 205 colon
[9] = system: DU-145 prostate
[10] = system: EKVX NSCLC
[11] = system: HCC-2998 colon
[12] = system: HCT-116 colon
[13] = system: HCT-15 colon
[14] = system: HL-60(TB) leukemia
[15] = system: HOP-62 NSCLC
[16] = system: HOP-92 NSCLC
[17] = system: HS 578T breast
[18] = system: HT29 colon
[19] = system: IGROV1 ovarian
[20] = system: K-562 leukemia
[21] = system: KM12 colon
[22] = system: LOX IMVI melanoma
[23] = system: M14 melanoma
[24] = system: MALME-3M melanoma
[25] = system: MCF7 breast
[26] = system: MDA-MB-231 breast
[27] = system: MDA-MB-435
[28] = system: MDA-N
[29] = system: MOLT-4 leukemia
[30] = system: NCI-H226 lung
[31] = system: NCI-H23 lung
[32] = system: NCI-H460 lung
[33] = system: NCI-H522 lung
[34] = system: NCI/ADR-RES ovarian
[35] = system: OVCAR-3 ovarian
[36] = system: OVCAR-4 ovarian
[37] = system: OVCAR-5 ovarian
[38] = system: OVCAR-8 ovarian
[39] = system: PC-3 prostate
[40] = system: RPMI-8226 leukemia
[41] = system: RXF 393 renal
[42] = system: SF-268 CNS
[43] = system: SF-295 CNS
[44] = system: SF-539 CNS
[45] = system: SK-MEL-2 melanoma
[46] = system: SK-MEL-28 melanoma
[47] = system: SK-MEL-5 melanoma
[48] = system: SK-OV-3 ovarian
[49] = system: SN12C renal
[50] = system: SNB-19 CNS
[51] = system: SNB-75 CNS
[52] = system: SR leukemia
[53] = system: SW-620 colon
[54] = system: T-47D breast
[55] = system: TK-10 renal
[56] = system: U251 CNS
[57] = system: UACC-257 melanoma
[58] = system: UACC-62 melanoma
[59] = system: UO-31 renal
[60] = system: DLD-1 colon
[61] = system: DMS 114 small cell lung
[62] = system: DMS 273 small cell lung
[63] = system: HOP-18 NSCLC
[64] = system: KM20L2 colon
[65] = system: LXFL 529 NSCLC
[66] = system: M19-MEL melanoma

Question: For COC(=O)CN(CC(O)C(NC(C)=O)C(O)C=O)C(=O)OCc1ccccc1 (stereo unspecified), which TGI [1] is on record?
Answer: > 100 µM

Question: And the TGI [2]?
Answer: > 100 µM

Question: What about the TGI [3] of the same compound?
Answer: > 100 µM

Question: And the TGI [4]?
Answer: > 100 µM

Question: What about the TGI [5] of the same compound?
Answer: > 100 µM

Question: And the TGI [6]?
Answer: > 100 µM

Question: And the TGI [7]?
Answer: > 100 µM

Question: What about the TGI [8] of the same compound?
Answer: > 100 µM

Question: What about the TGI [9] of the same compound?
Answer: > 100 µM

Question: And the TGI [10]?
Answer: > 100 µM

Question: And the TGI [11]?
Answer: > 100 µM

Question: What about the TGI [12] of the same compound?
Answer: > 100 µM

Question: And the TGI [13]?
Answer: > 31.6 µM

Question: What about the TGI [14] of the same compound?
Answer: > 100 µM

Question: And the TGI [15]?
Answer: > 100 µM

Question: What about the TGI [16] of the same compound?
Answer: > 100 µM

Question: What about the TGI [17] of the same compound?
Answer: > 100 µM

Question: What about the TGI [18] of the same compound?
Answer: > 100 µM

Question: And the TGI [19]?
Answer: > 100 µM

Question: What about the TGI [20] of the same compound?
Answer: > 100 µM

Question: And the TGI [21]?
Answer: > 100 µM

Question: What about the TGI [22] of the same compound?
Answer: > 100 µM

Question: And the TGI [23]?
Answer: > 100 µM

Question: What about the TGI [24] of the same compound?
Answer: > 100 µM

Question: What about the TGI [25] of the same compound?
Answer: > 100 µM

Question: What about the TGI [26] of the same compound?
Answer: > 100 µM

Question: What about the TGI [27] of the same compound?
Answer: > 100 µM

Question: What about the TGI [28] of the same compound?
Answer: > 100 µM

Question: What about the TGI [29] of the same compound?
Answer: > 100 µM

Question: What about the TGI [30] of the same compound?
Answer: > 100 µM

Question: And the TGI [31]?
Answer: > 100 µM

Question: What about the TGI [32] of the same compound?
Answer: > 100 µM

Question: What about the TGI [33] of the same compound?
Answer: > 100 µM

Question: And the TGI [34]?
Answer: > 100 µM

Question: And the TGI [35]?
Answer: > 100 µM

Question: And the TGI [36]?
Answer: > 100 µM

Question: And the TGI [37]?
Answer: > 100 µM

Question: What about the TGI [38] of the same compound?
Answer: > 100 µM

Question: What about the TGI [39] of the same compound?
Answer: > 100 µM

Question: What about the TGI [40] of the same compound?
Answer: > 100 µM

Question: What about the TGI [41] of the same compound?
Answer: > 100 µM

Question: And the TGI [42]?
Answer: > 100 µM

Question: What about the TGI [43] of the same compound?
Answer: > 100 µM

Question: And the TGI [44]?
Answer: > 100 µM

Question: What about the TGI [45] of the same compound?
Answer: > 100 µM

Question: And the TGI [46]?
Answer: > 100 µM

Question: What about the TGI [47] of the same compound?
Answer: > 100 µM

Question: And the TGI [48]?
Answer: > 100 µM

Question: What about the TGI [49] of the same compound?
Answer: > 100 µM

Question: What about the TGI [50] of the same compound?
Answer: > 100 µM

Question: What about the TGI [51] of the same compound?
Answer: > 100 µM

Question: What about the TGI [52] of the same compound?
Answer: > 100 µM

Question: What about the TGI [53] of the same compound?
Answer: > 100 µM

Question: What about the TGI [54] of the same compound?
Answer: > 100 µM

Question: And the TGI [55]?
Answer: > 100 µM

Question: And the TGI [56]?
Answer: > 100 µM

Question: And the TGI [57]?
Answer: > 100 µM

Question: And the TGI [58]?
Answer: > 100 µM

Question: What about the TGI [59] of the same compound?
Answer: > 100 µM

Question: What does the source list for COC(=O)c1cccc2c3ccccc3c3ccccc3c12?
Answer: TGI [1]: > 100 µM; TGI [2]: 50 µM; TGI [3]: > 100 µM; TGI [4]: > 100 µM; TGI [6]: > 100 µM; TGI [7]: 72.8 µM; TGI [8]: 31.7 µM; TGI [60]: > 100 µM; TGI [61]: 94.7 µM; TGI [62]: > 100 µM; TGI [10]: > 100 µM; TGI [11]: > 100 µM; TGI [12]: > 100 µM; TGI [13]: > 100 µM; TGI [14]: 58.1 µM; TGI [63]: > 100 µM; TGI [15]: > 100 µM; TGI [18]: 83 µM; TGI [19]: > 100 µM; TGI [20]: 79.3 µM; TGI [21]: > 100 µM; TGI [64]: > 100 µM; TGI [22]: 81 µM; TGI [65]: 85.2 µM; TGI [23]: > 100 µM; TGI [66]: > 100 µM; TGI [24]: > 100 µM; TGI [29]: 61.7 µM; TGI [30]: > 100 µM; TGI [31]: 54.7 µM; TGI [33]: 80.9 µM; TGI [35]: 56 µM; TGI [36]: > 100 µM; TGI [37]: > 100 µM; TGI [38]: 58.2 µM; TGI [41]: 71.3 µM; TGI [42]: > 100 µM; TGI [43]: 65.9 µM; TGI [45]: 58.7 µM; TGI [46]: > 100 µM; TGI [47]: > 100 µM; TGI [48]: 75.7 µM; TGI [49]: > 100 µM; TGI [50]: > 100 µM; TGI [51]: > 100 µM; TGI [52]: 87.7 µM; TGI [53]: > 100 µM; TGI [55]: > 100 µM; TGI [56]: 73.6 µM; TGI [57]: > 100 µM; TGI [58]: > 100 µM; TGI [59]: > 100 µM

— PubChem BioAssay (NCI)
